What was measured:
[1] = test system: TPO and TTF-1 mRNA in BRAF^V600E PTC-derived cells; experiment: qPCR of iodide metabolism genes (TPO, TTF-1 mRNA) in PTC-derived cells
[2] = test system: Xloc13 lincRNA expression in BRAF^V600E PTC-derived cells; experiment: qPCR of Xloc13 expression in BRAF^V600E PTC-derived cells; format: cell-based, human; details: metastatic or non-metastatic PTC-derived cells; vs. vehicle
[3] = test system: BRAF^V600E PTC-derived cells; experiment: 123-Iodide uptake in vitro; details: Xloc13 lincRNA; synergizes with vemurafenib
[4] = test system: BRAF^WT/V600E PTC-derived cell line xenograft tumors; experiment: Xenograft mouse model of human invasive heterozygous BRAF^WT/V600E PTC-derived cell line
[5] = test system: human invasive heterozygous BRAF^WT/V600E PTC-derived cell line; experiment: Invasion of human invasive BRAF^WT/V600E PTC-derived cell line; format: cell-based
[6] = Xloc13+ BRAF^WT/V600E PTC-derived cells

| Compound | TPO and TTF-1 mRNA levels rise ([1]; cells engineered to over-express Xloc13 (Xloc13+) during treatment with vemurafenib) [fold-changes] | rescue of Xloc13 expression (qPCR) [2] | 123-iodide uptake/organification in vitro [3] | EZH2 protein levels [4, 6] | H3K27me3 (EZH2 effector) [4, 6] | decrease in growth ([4]; Xloc13+ cells under vemurafenib therapy vs. backbone vector control) [fold] | 123-Iodide uptake in xenograft tumors (nano-SPECT imaging) ([4]; Xloc13+ tumors of vemurafenib-treated mice vs. vehicle-treated backbone vector controls) | invasion ([5]; Xloc13 lincRNA overexpression alone) | invasion ([5]; Xloc13 lincRNA overexpression plus vemurafenib) | TPO mRNA expression levels ([1]; Xloc13 lincRNA over-expression in PTC-derived cell lines) |
| --- | --- | --- | --- | --- | --- | --- | --- | --- | --- | --- |
| CCCS(=O)(=O)Nc1ccc(F)c(C(=O)c2c[nH]c3ncc(-c4ccc(Cl)cc4)cc23)c1F [vemurafenib, reference compound] | ~3.5 | 4-6 fold-changes | – | – | – | – | – | – | – | – |
| Xloc13 lincRNA: thyroid-specific long intergenic non-coding RNA (2.257 kb, SEQ ID NO: 1), over-expressed from a vector in PTC-derived cells | – | – | crucial for the rescue | transcriptionally down-regulated EZH2 protein levels | reducing its effector H3K27me3 | > 3 | significantly crucial for the recovery | inhibited invasion | inhibits invasion | up-regulates TPO mRNA expression levels |
